# Experimental data published in publication PMC8453901, “GLPG1205, a GPR84 Modulator: Safety, Pharmacokinetics, and Pharmacodynamics in Healthy Subjects” (Clinical Pharmacology in Drug Development, 2021).
# Assays:
# [1] = Safety and tolerability, study 1 SAD part; assay type: in vivo, human
# Protocol: Safety and tolerability were assessed on the basis of adverse events (AEs), which were monitored throughout both studies. Additional safety assessments included vital signs (including supine [and standing in study 2] heart rate, systolic and diastolic blood pressure, and oral body temperature), 12‐lead electrocardiogram (ECG), clinical laboratory tests (hematology, coagulation [study 2 only], serum/plasma chemistry, urinalysis, urine drug screen, serology, and alcohol breath test), and a comprehensive physical examination. In the SAD part of study 1, clinical laboratory tests, physical examination, and vital signs were assessed at the screening visit, at the time of dosing (0 hours after dose), 24 hours after dosing and at follow‐up (7 to 10 days after the final dose). Vital signs were additionally observed 2 hours after dosing, and the 12‐lead ECG was additionally completed at 1, 2, 6, 8, and 12 hours after dosing. In the MAD part of study 1, all additional safety assessments were performed at screening; days 1, 2, 8, 14, and 15; and at follow‐up. In study 2, additional safety assessments were performed at screening (between 21 and 2 days before the first study drug administration); days 1, 2, 5, 10, 14, 15, and 20 (clinical laboratory tests were not performed on day 20); at early discontinuation; and at follow‐up. For study 2, renal function tests (measurement of estimated creatinine clearance rate using the Cockcroft‐Gault equation) were also included in the clinical laboratory tests for safety assessment.
# In both studies, the safety analysis was descriptive and focused on changes from baseline and treatment‐emergent findings.
# [2] = design: method as in PMID 32902984; conditions: monkeys, up to 30 mg/kg/d; cited from earlier work
# CYP2C19 = system: CYP2C19; design: method as in data on file at Galapagos; conditions: in vitro; ref data on file at Galapagos; cited from earlier work
# CYP1A2 = system: CYP1A2; design: method as in data on file at Galapagos, 8, 9; conditions: 100 mg once daily, healthy male subjects; ref data on file at Galapagos, 8, 9; cited from earlier work
structure (smiles),measurement,setting,value
"O=c1nc(OC[C@@H]2COCCO2)cc2n1CCc1cc(C#CC3CC3)ccc1-2 [GLPG1205, 9‐cyclopropylethynyl‐2‐((S)‐1‐[1,4]dioxan‐2‐ylmethoxy)‐6,7‐dihydropyrimido[6,1‐a]isoquinolin‐4‐one]",subjects with nausea (most frequent TEAE),"[1]; SAD part, all doses",4 subjects
same,Any TEAE,[1]; single 10 mg (n = 6),2 (33.3) number of subjects (%)
same,Dizziness (TEAE),[1]; single 10 mg (n = 6),0 number of subjects (%)
same,Gastrointestinal disorders (TEAE),[1]; single 10 mg (n = 6),0 number of subjects (%)
same,Headache (TEAE),[1]; single 10 mg (n = 6),1 (16.7) number of subjects (%)
same,Hot flush (TEAE),[1]; single 10 mg (n = 6),0 number of subjects (%)
same,Infections and infestations (TEAE),[1]; single 10 mg (n = 6),1 (16.7) number of subjects (%)
same,Musculoskeletal and connective tissue disorders (TEAE),[1]; single 10 mg (n = 6),0 number of subjects (%)
same,Nausea (TEAE),[1]; single 10 mg (n = 6),0 number of subjects (%)
same,Nervous system disorders (TEAE),[1]; single 10 mg (n = 6),1 (16.7) number of subjects (%)
same,Oropharyngeal pain (TEAE),[1]; single 10 mg (n = 6),0 number of subjects (%)
same,"Respiratory, thoracic, and mediastinal disorders (TEAE)",[1]; single 10 mg (n = 6),0 number of subjects (%)
same,Somnolence (TEAE),[1]; single 10 mg (n = 6),0 number of subjects (%)
same,Torticollis (TEAE),[1]; single 10 mg (n = 6),0 number of subjects (%)
same,Urethritis chlamydial (TEAE),[1]; single 10 mg (n = 6),1 (16.7) number of subjects (%)
same,Vascular disorders (TEAE),[1]; single 10 mg (n = 6),0 number of subjects (%)
same,Any TEAE,[1]; single 30 mg (n = 6),1 (16.7) number of subjects (%)
same,Dizziness (TEAE),[1]; single 30 mg (n = 6),0 number of subjects (%)
same,Gastrointestinal disorders (TEAE),[1]; single 30 mg (n = 6),0 number of subjects (%)
same,Headache (TEAE),[1]; single 30 mg (n = 6),0 number of subjects (%)
same,Hot flush (TEAE),[1]; single 30 mg (n = 6),0 number of subjects (%)
same,Infections and infestations (TEAE),[1]; single 30 mg (n = 6),0 number of subjects (%)
same,Musculoskeletal and connective tissue disorders (TEAE),[1]; single 30 mg (n = 6),0 number of subjects (%)
same,Nausea (TEAE),[1]; single 30 mg (n = 6),0 number of subjects (%)
same,Nervous system disorders (TEAE),[1]; single 30 mg (n = 6),1 (16.7) number of subjects (%)
same,Oropharyngeal pain (TEAE),[1]; single 30 mg (n = 6),0 number of subjects (%)
same,"Respiratory, thoracic, and mediastinal disorders (TEAE)",[1]; single 30 mg (n = 6),0 number of subjects (%)
same,Somnolence (TEAE),[1]; single 30 mg (n = 6),1 (16.7) number of subjects (%)
same,Torticollis (TEAE),[1]; single 30 mg (n = 6),0 number of subjects (%)
same,Urethritis chlamydial (TEAE),[1]; single 30 mg (n = 6),0 number of subjects (%)
same,Vascular disorders (TEAE),[1]; single 30 mg (n = 6),0 number of subjects (%)
same,Any TEAE,[1]; single 90 mg (n = 6),0 number of subjects (%)
same,Dizziness (TEAE),[1]; single 90 mg (n = 6),0 number of subjects (%)
same,Gastrointestinal disorders (TEAE),[1]; single 90 mg (n = 6),0 number of subjects (%)
same,Headache (TEAE),[1]; single 90 mg (n = 6),0 number of subjects (%)
same,Hot flush (TEAE),[1]; single 90 mg (n = 6),0 number of subjects (%)
same,Infections and infestations (TEAE),[1]; single 90 mg (n = 6),0 number of subjects (%)
same,Musculoskeletal and connective tissue disorders (TEAE),[1]; single 90 mg (n = 6),0 number of subjects (%)
same,Nausea (TEAE),[1]; single 90 mg (n = 6),0 number of subjects (%)
same,Nervous system disorders (TEAE),[1]; single 90 mg (n = 6),0 number of subjects (%)
same,Oropharyngeal pain (TEAE),[1]; single 90 mg (n = 6),0 number of subjects (%)
same,"Respiratory, thoracic, and mediastinal disorders (TEAE)",[1]; single 90 mg (n = 6),0 number of subjects (%)
same,Somnolence (TEAE),[1]; single 90 mg (n = 6),0 number of subjects (%)
same,Torticollis (TEAE),[1]; single 90 mg (n = 6),0 number of subjects (%)
same,Urethritis chlamydial (TEAE),[1]; single 90 mg (n = 6),0 number of subjects (%)
same,Vascular disorders (TEAE),[1]; single 90 mg (n = 6),0 number of subjects (%)
same,Any TEAE,[1]; single 200 mg (n = 6),1 (16.7) number of subjects (%)
same,Dizziness (TEAE),[1]; single 200 mg (n = 6),0 number of subjects (%)
same,Gastrointestinal disorders (TEAE),[1]; single 200 mg (n = 6),1 (16.7) number of subjects (%)
same,Headache (TEAE),[1]; single 200 mg (n = 6),0 number of subjects (%)
same,Hot flush (TEAE),[1]; single 200 mg (n = 6),0 number of subjects (%)
same,Infections and infestations (TEAE),[1]; single 200 mg (n = 6),0 number of subjects (%)
same,Musculoskeletal and connective tissue disorders (TEAE),[1]; single 200 mg (n = 6),0 number of subjects (%)
same,Nausea (TEAE),[1]; single 200 mg (n = 6),1 (16.7) number of subjects (%)
same,Nervous system disorders (TEAE),[1]; single 200 mg (n = 6),0 number of subjects (%)
same,Oropharyngeal pain (TEAE),[1]; single 200 mg (n = 6),0 number of subjects (%)
same,"Respiratory, thoracic, and mediastinal disorders (TEAE)",[1]; single 200 mg (n = 6),0 number of subjects (%)
same,Somnolence (TEAE),[1]; single 200 mg (n = 6),0 number of subjects (%)
same,Torticollis (TEAE),[1]; single 200 mg (n = 6),0 number of subjects (%)
same,Urethritis chlamydial (TEAE),[1]; single 200 mg (n = 6),0 number of subjects (%)
same,Vascular disorders (TEAE),[1]; single 200 mg (n = 6),0 number of subjects (%)
same,Any TEAE,[1]; single 400 mg (n = 6),3 (50.0) number of subjects (%)
same,Dizziness (TEAE),[1]; single 400 mg (n = 6),0 number of subjects (%)
same,Gastrointestinal disorders (TEAE),[1]; single 400 mg (n = 6),1 (16.7) number of subjects (%)
same,Headache (TEAE),[1]; single 400 mg (n = 6),1 (16.7) number of subjects (%)
same,Hot flush (TEAE),[1]; single 400 mg (n = 6),1 (16.7) number of subjects (%)
same,Infections and infestations (TEAE),[1]; single 400 mg (n = 6),0 number of subjects (%)
same,Musculoskeletal and connective tissue disorders (TEAE),[1]; single 400 mg (n = 6),1 (16.7) number of subjects (%)
same,Nausea (TEAE),[1]; single 400 mg (n = 6),1 (16.7) number of subjects (%)
same,Nervous system disorders (TEAE),[1]; single 400 mg (n = 6),1 (16.7) number of subjects (%)
same,Oropharyngeal pain (TEAE),[1]; single 400 mg (n = 6),0 number of subjects (%)
same,"Respiratory, thoracic, and mediastinal disorders (TEAE)",[1]; single 400 mg (n = 6),0 number of subjects (%)
same,Somnolence (TEAE),[1]; single 400 mg (n = 6),0 number of subjects (%)
same,Torticollis (TEAE),[1]; single 400 mg (n = 6),1 (16.7) number of subjects (%)
same,Urethritis chlamydial (TEAE),[1]; single 400 mg (n = 6),0 number of subjects (%)
same,Vascular disorders (TEAE),[1]; single 400 mg (n = 6),1 (16.7) number of subjects (%)
same,Any TEAE,[1]; single 600 mg (n = 6),0 number of subjects (%)
same,Dizziness (TEAE),[1]; single 600 mg (n = 6),0 number of subjects (%)
same,Gastrointestinal disorders (TEAE),[1]; single 600 mg (n = 6),0 number of subjects (%)
same,Headache (TEAE),[1]; single 600 mg (n = 6),0 number of subjects (%)
same,Hot flush (TEAE),[1]; single 600 mg (n = 6),0 number of subjects (%)
same,Infections and infestations (TEAE),[1]; single 600 mg (n = 6),0 number of subjects (%)
same,Musculoskeletal and connective tissue disorders (TEAE),[1]; single 600 mg (n = 6),0 number of subjects (%)
same,Nausea (TEAE),[1]; single 600 mg (n = 6),0 number of subjects (%)
same,Nervous system disorders (TEAE),[1]; single 600 mg (n = 6),0 number of subjects (%)
same,Oropharyngeal pain (TEAE),[1]; single 600 mg (n = 6),0 number of subjects (%)
same,"Respiratory, thoracic, and mediastinal disorders (TEAE)",[1]; single 600 mg (n = 6),0 number of subjects (%)
same,Somnolence (TEAE),[1]; single 600 mg (n = 6),0 number of subjects (%)
same,Torticollis (TEAE),[1]; single 600 mg (n = 6),0 number of subjects (%)
same,Urethritis chlamydial (TEAE),[1]; single 600 mg (n = 6),0 number of subjects (%)
same,Vascular disorders (TEAE),[1]; single 600 mg (n = 6),0 number of subjects (%)
same,Any TEAE,[1]; single 800 mg (n = 6),5 (83.3) number of subjects (%)
same,Dizziness (TEAE),[1]; single 800 mg (n = 6),1 (16.7) number of subjects (%)
same,Gastrointestinal disorders (TEAE),[1]; single 800 mg (n = 6),2 (33.3) number of subjects (%)
same,Headache (TEAE),[1]; single 800 mg (n = 6),1 (16.7) number of subjects (%)
same,Hot flush (TEAE),[1]; single 800 mg (n = 6),0 number of subjects (%)
same,Infections and infestations (TEAE),[1]; single 800 mg (n = 6),0 number of subjects (%)
same,Musculoskeletal and connective tissue disorders (TEAE),[1]; single 800 mg (n = 6),0 number of subjects (%)
same,Nausea (TEAE),[1]; single 800 mg (n = 6),2 (33.3) number of subjects (%)
same,Nervous system disorders (TEAE),[1]; single 800 mg (n = 6),3 (50.0) number of subjects (%)
same,Oropharyngeal pain (TEAE),[1]; single 800 mg (n = 6),2 (33.3) number of subjects (%)
same,"Respiratory, thoracic, and mediastinal disorders (TEAE)",[1]; single 800 mg (n = 6),2 (33.3) number of subjects (%)
same,Somnolence (TEAE),[1]; single 800 mg (n = 6),1 (16.7) number of subjects (%)
same,Torticollis (TEAE),[1]; single 800 mg (n = 6),0 number of subjects (%)
same,Urethritis chlamydial (TEAE),[1]; single 800 mg (n = 6),0 number of subjects (%)
same,Vascular disorders (TEAE),[1]; single 800 mg (n = 6),0 number of subjects (%)
same,dose-proportionality of exposure,[2],increased dose‐proportionally
same,inhibition of CYP2C19,CYP2C19,weak inhibition
same,effect on exposure of CYP1A2,CYP1A2,did not affect the exposure
